# Reference: US20150148235A1, “HERBICIDE-RESISTANT SUNFLOWER PLANTS WITH MULTIPLE HERBICIDE RESISTANT ALLELES OF AHASL1 AND METHODS OF USE” (NIDERA S.A., priority 2013, published 2015)
# Key:
# [1] = system: sunflower hybrids and lines (A122T, A205V, A205V/A122T); experiment: Field trial North Dakota 2006, phytotoxicity ratings after imazamox or imazapyr, Example 3; type: in vivo, Helianthus annuus; settings: for phytotoxicity: 200 g ai/ha
# Description: • Spray volume: 10 gallons per acre (GPA) (or 100 liters/ha) for backpack sprayer or 20 GPA (or 200 liters/ha) for tractor mounted boom • Growth Stage at Herbicide Application: 2-4 leaves
# Entry 15 (WT Maintainer line) was left unsprayed in all treatment blocks.
# Phytotoxicity ratings were assessed at 7 and 21 days following herbicide application.
# The data was subjected to an ANOVA analysis and the means from the 3 repetitions are presented in Table 7 (phytotoxicity at 7 days post-treatment) and Table 8 (phytotoxicity at 21 days post-treatment).
# [2] = system: AHAS enzyme, A122T/A205V Heterozygous sunflower; experiment: AHAS enzyme activity assay, leaf extract; type: biochemical, Helianthus annuus; settings: A122T/A205V heterozygous hybrid (Set 1); 100 μM
# Description: (§1) Twelve greenhouse grown sunflower plants from each of the lines depicted in Table 21 were bulked and subjected to an AHAS enzyme activity assay via the method of Singh et al. (1988) Anal. Biochem. 171:173-179. Each activity assay was repeated twice. Due to the large number of samples, the experiment was split into two sets (Table 21).
# (§2) Young, actively growing leaves, from four week old plantlets, were ground in a mortar and pestle with liquid N2 and extracted with a buffer composed of 100 mM Pyruvate, 200 mM KH2PO4, 20 mM MgCl2, 2 mM thiamine pyrophosphate and […]. Plant extracts were then spun through a 10 mL Zeba TM desalt spin column (Pierce #89893) as per the manufacturer's recommendation. The inhibition assay was performed as described by Singh et al. (1988) Anal. Biochem. 171:173-179. Assays were conducted in a 96-well format. Fifty μl of inhibitor was added to each well containing 50 μl of soluble protein extract to give final concentrations of 0.78, 1.56, 3.125, 6.25, 12.5, 25, 50 and 100 μM imazamox or 0.78, 1.56, 3.125, 6.25, 12.5, 25, 50 and 100 μM imazapyr. Zero herbicide controls were also included for each line. Reactions were processed as outlined by Singh et al. (1988) Anal. Biochem. 171:173-179. Absorbance was measured at 530 nm. AHAS activity, expressed as the mean of the absorbance values for each treatment, was presented as a percentage of the mean of the zero-herbicide controls.
# [3] = system: AHAS enzyme, A205V Homozygous sunflower; experiment: AHAS enzyme activity assay, leaf extract; type: biochemical, Helianthus annuus
# Description: as §1, §2
# [4] = system: AHAS enzyme, WT sunflower line B7; experiment: AHAS enzyme activity assay, leaf extract; type: biochemical, Helianthus annuus; settings: 100 μM
# Description: as §1, §2
# [5] = system: AHAS enzyme, A122T Homozygous sunflower; experiment: AHAS enzyme activity assay, leaf extract; type: biochemical, Helianthus annuus
# Description: as §1, §2
# [6] = system: AHAS enzyme, A122T Heterozygous sunflower; experiment: AHAS enzyme activity assay, leaf extract; type: biochemical, Helianthus annuus; settings: A122T heterozygous hybrid (Set 2)
# Description: as §1, §2
smiles,measurement,setting,value
COCc1cnc(C2=NC(C)(C(C)C)C(=O)N2)c(C(=O)O)c1 (stereo not shown) [imazamox],Phytotoxicity Rating (% Crop Injury),"[1]; 11-hybrid (GM40 CMS × IMI restorer, A205/A122 hetero/double), 50 g ai/ha + 0.25% NIS, 21 DAT",0.0%
same,Phytotoxicity Rating (% Crop Injury),"[1]; 11-hybrid (GM40 CMS × IMI restorer, A205/A122 hetero/double), 100 g ai/ha + 0.25% NIS, 7 DAT",3.3%
same,Phytotoxicity Rating (% Crop Injury),"[1]; 11-hybrid (GM40 CMS × IMI restorer, A205/A122 hetero/double), 100 g ai/ha + 0.25% NIS, 21 DAT",0.0%
same,Phytotoxicity Rating (% Crop Injury),"[1]; 11-hybrid (GM40 CMS × IMI restorer, A205/A122 hetero/double), 200 g ai/ha + 0.25% NIS, 7 DAT",11.7%
same,Phytotoxicity Rating (% Crop Injury),"[1]; 11-hybrid (GM40 CMS × IMI restorer, A205/A122 hetero/double), 200 g ai/ha + 0.25% NIS, 21 DAT",3.3%
same,Phytotoxicity Rating (% Crop Injury),"[1]; 12-hybrid (IMI CMS × GM40 restorer, A205/A122 hetero/double), 50 g ai/ha + 0.25% NIS, 7 DAT",10.0%
same,Phytotoxicity Rating (% Crop Injury),"[1]; 12-hybrid (IMI CMS × GM40 restorer, A205/A122 hetero/double), 50 g ai/ha + 0.25% NIS, 21 DAT",3.3%
same,Phytotoxicity Rating (% Crop Injury),"[1]; 12-hybrid (IMI CMS × GM40 restorer, A205/A122 hetero/double), 100 g ai/ha + 0.25% NIS, 7 DAT",10.0%
same,Phytotoxicity Rating (% Crop Injury),"[1]; 12-hybrid (IMI CMS × GM40 restorer, A205/A122 hetero/double), 100 g ai/ha + 0.25% NIS, 21 DAT",3.3%
same,Phytotoxicity Rating (% Crop Injury),"[1]; 12-hybrid (IMI CMS × GM40 restorer, A205/A122 hetero/double), 200 g ai/ha + 0.25% NIS, 7 DAT",11.7%
same,Phytotoxicity Rating (% Crop Injury),"[1]; 12-hybrid (IMI CMS × GM40 restorer, A205/A122 hetero/double), 200 g ai/ha + 0.25% NIS, 21 DAT",3.3%
same,Phytotoxicity Rating (% Crop Injury),"[1]; 13-hybrid (GM40 CMS × GM40 restorer, A122 homo), 50 g ai/ha + 0.25% NIS, 7 DAT",3.3%
same,Phytotoxicity Rating (% Crop Injury),"[1]; 13-hybrid (GM40 CMS × GM40 restorer, A122 homo), 50 g ai/ha + 0.25% NIS, 21 DAT",0.0%
same,Phytotoxicity Rating (% Crop Injury),"[1]; 13-hybrid (GM40 CMS × GM40 restorer, A122 homo), 100 g ai/ha + 0.25% NIS, 7 DAT",5.0%
same,Phytotoxicity Rating (% Crop Injury),"[1]; 13-hybrid (GM40 CMS × GM40 restorer, A122 homo), 100 g ai/ha + 0.25% NIS, 21 DAT",1.7%
same,Phytotoxicity Rating (% Crop Injury),"[1]; 13-hybrid (GM40 CMS × GM40 restorer, A122 homo), 200 g ai/ha + 0.25% NIS, 7 DAT",10.0%
same,Phytotoxicity Rating (% Crop Injury),"[1]; 13-hybrid (GM40 CMS × GM40 restorer, A122 homo), 200 g ai/ha + 0.25% NIS, 21 DAT",3.3%
same,Phytotoxicity Rating (% Crop Injury),"[1]; 14-hybrid (GM40 CMS × GM40 restorer, A122 homo), 50 g ai/ha + 0.25% NIS, 7 DAT",5.0%
same,Phytotoxicity Rating (% Crop Injury),"[1]; 14-hybrid (GM40 CMS × GM40 restorer, A122 homo), 50 g ai/ha + 0.25% NIS, 21 DAT",0.0%
same,Phytotoxicity Rating (% Crop Injury),"[1]; 14-hybrid (GM40 CMS × GM40 restorer, A122 homo), 100 g ai/ha + 0.25% NIS, 7 DAT",6.7%
same,Phytotoxicity Rating (% Crop Injury),"[1]; 14-hybrid (GM40 CMS × GM40 restorer, A122 homo), 100 g ai/ha + 0.25% NIS, 21 DAT",3.3%
same,Phytotoxicity Rating (% Crop Injury),"[1]; 14-hybrid (GM40 CMS × GM40 restorer, A122 homo), 200 g ai/ha + 0.25% NIS, 7 DAT",11.7%
same,Phytotoxicity Rating (% Crop Injury),"[1]; 14-hybrid (GM40 CMS × GM40 restorer, A122 homo), 200 g ai/ha + 0.25% NIS, 21 DAT",5.0%
same,Phytotoxicity Rating (% Crop Injury),"[1]; 15-hybrid (WT × GM40 restorer, A122 hetero), 50 g ai/ha + 0.25% NIS, 7 DAT",10.0%
same,Phytotoxicity Rating (% Crop Injury),"[1]; 15-hybrid (WT × GM40 restorer, A122 hetero), 50 g ai/ha + 0.25% NIS, 21 DAT",6.7%
same,Phytotoxicity Rating (% Crop Injury),"[1]; 15-hybrid (WT × GM40 restorer, A122 hetero), 100 g ai/ha + 0.25% NIS, 7 DAT",11.7%
same,Phytotoxicity Rating (% Crop Injury),"[1]; 15-hybrid (WT × GM40 restorer, A122 hetero), 100 g ai/ha + 0.25% NIS, 21 DAT",11.7%
same,Phytotoxicity Rating (% Crop Injury),"[1]; 15-hybrid (WT × GM40 restorer, A122 hetero), 200 g ai/ha + 0.25% NIS, 7 DAT",16.7%
same,Phytotoxicity Rating (% Crop Injury),"[1]; 15-hybrid (WT × GM40 restorer, A122 hetero), 200 g ai/ha + 0.25% NIS, 21 DAT",30.0%
same,Phytotoxicity Rating (% Crop Injury),"[1]; 16-hybrid (WT × GM40 restorer, A122 hetero), 50 g ai/ha + 0.25% NIS, 7 DAT",10.0%
same,Phytotoxicity Rating (% Crop Injury),"[1]; 16-hybrid (WT × GM40 restorer, A122 hetero), 50 g ai/ha + 0.25% NIS, 21 DAT",6.7%
same,Phytotoxicity Rating (% Crop Injury),"[1]; 16-hybrid (WT × GM40 restorer, A122 hetero), 100 g ai/ha + 0.25% NIS, 7 DAT",15.0%
same,Phytotoxicity Rating (% Crop Injury),"[1]; 16-hybrid (WT × GM40 restorer, A122 hetero), 100 g ai/ha + 0.25% NIS, 21 DAT",16.7%
same,Phytotoxicity Rating (% Crop Injury),"[1]; 16-hybrid (WT × GM40 restorer, A122 hetero), 200 g ai/ha + 0.25% NIS, 7 DAT",23.3%
same,Phytotoxicity Rating (% Crop Injury),"[1]; 16-hybrid (WT × GM40 restorer, A122 hetero), 200 g ai/ha + 0.25% NIS, 21 DAT",31.7%
same,phytotoxicity,"[1]; heterozygous A205V/A122T lines, 21 DAT",2-3%
same,phytotoxicity,"[1]; homozygous A122T/A122T lines, 21 DAT",3-5%
same,phytotoxicity,"[1]; homozygous A205V/A205V lines, 21 DAT",15-22%
same,AHAS activity,[2],59%
same,AHAS activity,"[3]; A205V homozygous (Set 2), 50 μM",30%
same,AHAS activity,"[3]; A205V homozygous (Set 2), 100 μM",26%
same,AHAS activity,"[3]; A205V homozygous hybrid (Set 1), 100 μM",36 % of untreated control
same,AHAS activity,"[4]; WT line B7, Set 1",17 % relative to the untreated co
same,AHAS activity,"[4]; WT line B7, Set 2",11 % relative to the untreated co
same,AHAS activity,"[5]; A122T homozygous (Set 2), 50 μM",63 % relative to the untreated co
same,AHAS activity,"[5]; A122T homozygous (Set 2), 100 μM",60 % relative to the untreated co
same,AHAS activity,"[5]; A122T homozygous hybrid (Set 1), 100 μM",69 % of untreated control
same,AHAS activity,[6]; 50 μM,30%
same,AHAS activity,[6]; 100 μM,30%
